Assay type in all cases: cell-based
Test [1] concerns B-lymphocytes isolated from mouse spleen. As to the kind of experiment: B-lymphocyte proliferation assay (LPS, [3H]thymidine incorporation). To be noted: B-cell, read-out: IC50, suppression of B-cell proliferation. As for the experimental part:
B-lymphocytes were isolated from mouse spleen by standard methods, and suspended in DMEM. A total of 10^6 cells/ml were incubated overnight at 37° C. in the presence of 1 μg/ml lipopolysaccharide (LPS) to assess stimulation (positive score, related to control) or suppression (negative score, related to control) of cell proliferation. Test substances were evaluated under these conditions at a pre-defined concentration. After overnight incubation, 2 μCi [^3H]thymidine was added to each well. Cells were harvested. after an additional 48 hours incubation, and thymidine incorporation assessed by liquid scintillation counting.

Test [2] concerns T-lymphocytes isolated from mouse thymus. The test is described as follows: T-lymphocyte proliferation assay (Con A, [3H]thymidine incorporation). Conditions: read-out: IC50, suppression of T-cell proliferation. The method, then: T-lymphocytes were isolated from mouse thymus by standard methods, and suspended in DMEM (see, e.g., Mishell B B and Shiigi S M, eds., “Cell Proliferation” in Selected Methods in Cellular Immunology, V, XXIX, W. H. Freeman Co., San Francisco, Calif. pp. 153-160, 1980 and Dayton et al. (1992) Mol. Pharmacol. 41: 671-676). A total of 5×10^6 cells/ml were incubated overnight at 37° C. in the presence of 3 μg/ml Con A to assess stimulation (positive score, related to 10 U/ml of rat interleukin-2) or suppression (negative score, related to control) of cell proliferation. Test substances were evaluated under these conditions at a pre-defined concentration. After overnight incubation, 2 μCi [^3H]thymidine was added to each well. Cells were harvested after an additional 48 hours incubation, and thymidine incorporation assessed by liquid scintillation counting.
All 40 fractions were subsequently tested in the ConA-induced T-cell proliferation assay, the same assay described in Example 4. Fractions providing greater than or equal to 40% suppression are considered active.
Background: Uptake of a labelled nucleoside into DNA is a usual measure of proliferation.

Test [3] relates to TNF-α production by human PBMCs. As to the kind of experiment: inhibition of LPS-stimulated TNF-α production. To be noted: PBMC, LPS 1 μg/mL, 24 hours, positive control. The method, then: TNF-α production by human PBMCs was stimulated using lipopolysaccharide (1 μg/mL) based on a procedure by Schindler et al. (Schindler R et al. Correlations and Interactions in the Production of Interleukin (IL)-6, IL-1, and Tumor Necrosis Factor (TNF) in Human Blood Mononuclear Cells: IL-6 Suppresses IL-1 and TNF. Blood, 75:40-47, 1990). The levels of TNF-α were measured 24 hours following LPS stimulation with a commercially available enzyme-immuno assay (EIA) kit and spectrophotometric measurements were performed with a microplate reader (MRX, Dynatech). The compositions of the present invention were tested in this study were 1, 10, and 50 μg/mL in duplicate. […] The suppression caused by test compounds is expressed as the percent decrease relative to the vehicle control value.

Test [4] deals with IL-2 production from human PBMC. As to the kind of experiment: inhibition of PHA-stimulated IL-2 production. Conditions: PHA 20 μg/mL, 48 hours, positive control. The method, then:
In this example, the ability of lanolin fractions to inhibit PHA-stimulated IL-2 production from human peripheral blood mononuclear cells (PBMCs) was assayed. IL-2 production from human PBMC was stimulated by phytohemagglutanin (20 μg/mL) based on a procedure described by Konno et al. (Konno S. I. et al. “Inhibition of Cytokine Production from Human Peripheral Blood Leukocytes by Anti-allergic Agents in vitro.” Eur. J. Pharmacol, 264:265-268, 1994) wherein IL-2 levels were measured 48 hours post-stimulation with a commercially available enzyme-immuno assay (EIA) kit and spectrophotometric measurements were performed with a microplate reader (MRX, Dynatech.) The various compositions of the present invention were tested at final concentrations of […], in duplicate. Dexamethasone was used as the positive control in these studies; the IC50 of dexamethasone was 5 nM. The levels of suppression caused by the test compounds are expressed as the percent decrease relative to the vehicle control values.

Like-named read-outs stand apart in the source and are kept apart here.

Consider `O=P1(N(CCCl)CCCl)NCCCO1` (stereo not drawn) [cyclophosphamide], for which the IC50 in test [1] and in test [2] was more than 10 µM in each case.

Consider `C[C@@H]1C[C@H]2[C@@H]3CCC4=CC(=O)C=C[C@]4(C)[C@@]3(F)[C@@H](O)C[C@]2(C)[C@@]1(O)C(=O)CO` [dexamethasone], for which the IC50 is approximately 0.016 µM in test [3] and 0.005 µM in test [4].

On to `Cn1cnc([N+](=O)[O-])c1Sc1ncnc2nc[nH]c12` [azathioprine], for which the IC50 in test [1] (compounds known to suppress) and in test [2] (positive controls) was more than 10 µM each time.

The record behind these values is patent publication US20020182260A1, “Anti-inflammatory agents and methods for their preparation and use” (Cellegy Pharmaceuticals, Inc., priority 1998, published 2002).
